The values below are quoted from earlier work in patent publication US10870689B2, “ApoM-Fc fusion proteins, complexes thereof with sphingosine 1-phosphate (S1P), and methods for treating vascular and non-vascular diseases” (Children's Medical Center Corporation, priority 2016, dated 2020).

The data set addresses T1, S1P1 (Homo sapiens, UniProt P21453).
T1 construct: expressed in transfected cells
Particulars: Hofmann et al. 2009; Tsukada et al. 2007.

T1 sequence (P21453 whole entry, species assumed): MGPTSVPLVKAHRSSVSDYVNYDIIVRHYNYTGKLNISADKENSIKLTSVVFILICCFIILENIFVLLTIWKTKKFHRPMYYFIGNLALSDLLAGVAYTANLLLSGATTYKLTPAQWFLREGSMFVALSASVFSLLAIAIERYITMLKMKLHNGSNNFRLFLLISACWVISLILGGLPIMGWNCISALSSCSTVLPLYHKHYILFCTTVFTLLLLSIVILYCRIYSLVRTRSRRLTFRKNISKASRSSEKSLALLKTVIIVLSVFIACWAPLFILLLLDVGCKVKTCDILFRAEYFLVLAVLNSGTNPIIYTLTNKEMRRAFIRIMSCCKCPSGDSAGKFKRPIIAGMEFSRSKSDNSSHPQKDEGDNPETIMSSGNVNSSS

`FC(F)(F)c1cccc(-c2noc(-c3cc(-c4ccccc4)c(C(F)(F)F)s3)n2)c1` [SEW2871]: the “effect on cardiac rhythm” value is “induced abnormal cardiac rhythm”.
